Measurements taken from patent publication US9481676B2, “Azepino[4,5-B]indoles and methods of use” (Medivation Technologies, Inc., priority 2008, dated 2016).

What was measured:
[1] = molecular target: T1, human recombinant serotonin (5-Hydroxytryptamine) 5-HT2A receptor (Homo sapiens, UniProt P28223); assay: Serotonin 5-HT2A radioligand binding ([3H]Ketanserin); conditions: compound at 1 μM; read-out: Serotonin (1 μM) 5-HT2A, percent inhibition of specific binding
T1 construct: expressed in transfected cells; host or cells: CHO-K1 cells
How it was run: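 Percent inhibition of specific [3H]ketanserin (0.5 nM) binding, filtration read-out, with compounds at ≤1 μM (1% DMSO vehicle). Receptor source: recombinant human 5-HT2A in CHO-K1 cells, 50 mM Tris-HCl pH 7.4, 60 min, 25 °C; 1 μM mianserin gives nonspecific binding.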

[2] = molecular target: T2, human recombinant adrenergic α1D receptor (Homo sapiens, UniProt P25100); assay: Adrenergic alpha1D radioligand binding ([3H]Prozosin); conditions: compound at 1 μM; read-out: Adrenergic (1 μM) α1D, percent inhibition of specific binding
T2 construct: expressed in transfected cells; host or cells: HEK-293 cells
T2 sequence (P25100 1-572): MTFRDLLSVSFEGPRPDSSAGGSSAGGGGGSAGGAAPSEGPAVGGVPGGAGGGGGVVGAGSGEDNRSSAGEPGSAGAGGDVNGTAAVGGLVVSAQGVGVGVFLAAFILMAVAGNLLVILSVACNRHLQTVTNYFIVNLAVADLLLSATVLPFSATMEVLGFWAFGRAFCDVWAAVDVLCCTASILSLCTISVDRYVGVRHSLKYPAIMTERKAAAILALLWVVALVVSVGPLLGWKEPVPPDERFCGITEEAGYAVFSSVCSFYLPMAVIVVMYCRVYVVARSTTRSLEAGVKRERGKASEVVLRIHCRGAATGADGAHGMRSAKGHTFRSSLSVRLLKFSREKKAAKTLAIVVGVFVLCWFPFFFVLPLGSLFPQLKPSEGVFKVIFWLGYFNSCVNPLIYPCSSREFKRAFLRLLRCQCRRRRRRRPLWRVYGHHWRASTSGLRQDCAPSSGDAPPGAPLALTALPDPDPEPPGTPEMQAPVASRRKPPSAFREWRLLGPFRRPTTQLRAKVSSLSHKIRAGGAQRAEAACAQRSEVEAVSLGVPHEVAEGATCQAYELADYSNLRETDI
How it was run: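 Membranes from HEK-293 cells expressing the human receptor in 50 mM Tris-HCl pH 7.4 were incubated 60 min at 25 °C with 0.6 nM [3H]prazosin. Nonspecific binding was defined with 10 μM phentolamine, and bound ligand measured by filtration.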

[3] = molecular target: T3, human recombinant histamine H2 receptor (Homo sapiens, UniProt P25021); assay: Histamine H2 radioligand binding ([125I]Aminopotentidine); conditions: compound at 1 μM; read-out: Histamine Binding (1 μM) H2, percent inhibition of specific binding
T3 construct: expressed in transfected cells; host or cells: CHO-K1 cells
How it was run: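 Membranes from CHO-K1 cells expressing recombinant human H2 receptor, in 50 mM phosphate buffer pH 7.4, incubated with 0.1 nM [125I]aminopotentidine for 120 min at 25 °C; nonspecific binding defined with 3 μM tiotidine.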

[4] = molecular target: T4, human recombinant serotonin (5-Hydroxytryptamine) 5-HT6 receptor (Homo sapiens, UniProt P50406); assay: Serotonin 5-HT6 radioligand binding ([3H]LSD); conditions: compound at 1 μM; read-out: Serotonin (1 μM) 5-HT6, percent inhibition of specific binding
T4 construct: expressed in transfected cells; host or cells: human HeLa cells
How it was run: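 Human recombinant 5-HT6 receptor from HeLa cells incubated with 1.5 nM [3H]LSD for 120 min at 37° C in 50 mM Tris-HCl pH 7.4, 150 mM NaCl, 2 mM ascorbic acid, 0.001% BSA. Nonspecific binding defined with 5 μM serotonin; bound ligand counted after filtration.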

T3 sequence (P25021 whole entry): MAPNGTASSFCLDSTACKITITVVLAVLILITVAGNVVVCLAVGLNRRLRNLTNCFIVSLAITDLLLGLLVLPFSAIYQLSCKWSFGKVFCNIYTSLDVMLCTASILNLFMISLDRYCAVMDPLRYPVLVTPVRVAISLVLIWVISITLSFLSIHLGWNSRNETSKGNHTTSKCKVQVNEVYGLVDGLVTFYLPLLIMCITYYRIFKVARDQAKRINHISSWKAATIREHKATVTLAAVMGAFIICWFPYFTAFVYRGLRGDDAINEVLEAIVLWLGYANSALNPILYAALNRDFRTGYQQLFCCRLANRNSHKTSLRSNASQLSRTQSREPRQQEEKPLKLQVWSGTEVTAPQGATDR
T1 sequence (P28223 whole entry): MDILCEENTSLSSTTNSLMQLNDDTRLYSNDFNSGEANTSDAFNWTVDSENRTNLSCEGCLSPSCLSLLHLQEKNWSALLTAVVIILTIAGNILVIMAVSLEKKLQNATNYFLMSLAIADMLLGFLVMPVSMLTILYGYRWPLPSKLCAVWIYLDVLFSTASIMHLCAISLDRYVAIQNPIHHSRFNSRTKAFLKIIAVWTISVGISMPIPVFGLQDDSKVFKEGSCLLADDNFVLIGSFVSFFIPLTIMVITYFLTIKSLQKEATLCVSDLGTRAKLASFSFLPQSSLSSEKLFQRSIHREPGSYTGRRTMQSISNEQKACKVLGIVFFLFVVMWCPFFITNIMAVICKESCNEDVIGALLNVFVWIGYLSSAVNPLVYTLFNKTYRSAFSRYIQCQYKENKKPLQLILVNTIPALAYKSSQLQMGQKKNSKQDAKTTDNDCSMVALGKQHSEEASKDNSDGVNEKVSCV
T4 sequence (P50406 whole entry): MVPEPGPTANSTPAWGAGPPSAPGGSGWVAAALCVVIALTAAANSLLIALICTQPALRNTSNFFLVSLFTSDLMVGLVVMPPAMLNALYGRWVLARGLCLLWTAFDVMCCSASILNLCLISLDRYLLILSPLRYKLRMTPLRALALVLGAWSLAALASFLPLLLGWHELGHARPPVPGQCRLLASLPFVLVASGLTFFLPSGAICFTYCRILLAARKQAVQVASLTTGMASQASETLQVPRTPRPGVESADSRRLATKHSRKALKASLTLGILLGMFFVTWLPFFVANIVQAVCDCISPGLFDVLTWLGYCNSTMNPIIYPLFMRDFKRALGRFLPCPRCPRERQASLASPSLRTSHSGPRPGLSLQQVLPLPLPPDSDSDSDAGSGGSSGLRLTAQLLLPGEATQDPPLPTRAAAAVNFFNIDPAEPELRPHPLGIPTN

Structure (SMILES)	inhibition at 1 µM [1] [%]	inhibition at 1 µM [2] [%]	inhibition at 1 µM [3] [%]	inhibition at 1 µM [4] [%]
Cc1ccc2c(c1)c1c(n2/C=C/c2ccc(Cl)cc2)CCN(C)CC1 [Compound No. 235, (E)-6-(4-chlorostyryl)-3,9-dimethyl-1,2,3,4,5,6-hexahydroazepino[4,5-b]indole]	102	95	94	97
CN1CCc2c(n(/C=C/c3ccc(F)c(F)c3)c3ccc(Cl)cc23)CC1 [Compound No. 236, (E)-9-chloro-6-(3,4-difluorostyryl)-3-methyl-1,2,3,4,5,6-hexahydroazepino[4,5-b]indole]	101	94	97	102
CN1CCc2c(n(CCc3ccccc3F)c3ccccc23)CC1 [Compound No. 237, 6-(2-fluorophenethyl)-3-methyl-1,2,3,4,5,6-hexahydroazepino[4,5-b]indole]	99	70	81	103
C/C(=C\n1c2c(c3cc(C)ccc31)CCN(C)CC2)c1ccc(Cl)cc1Cl [Compound No. 238, (E)-6-(2-(2,4-dichlorophenyl)prop-1-enyl)-3,9-dimethyl-1,2,3,4,5,6-hexahydroazepino[4,5-b]indole]	103	30	98	86
C/C(=C\n1c2c(c3cc(Cl)ccc31)CCN(C)CC2)c1ccc(Cl)cc1Cl [Compound No. 239, (E)-9-chloro-6-(2-(2,4-dichlorophenyl)prop-1-enyl)-3-methyl-1,2,3,4,5,6-hexahydroazepino[4,5-b]indole]	102	28	89	59
CN1CCc2c(n(C#Cc3ccc(F)cc3)c3ccc(Cl)cc23)CC1 [Compound No. 281, 9-chloro-6-((4-fluorophenyl)ethynyl)-3-methyl-1,2,3,4,5,6-hexahydroazepino[4,5-b]indole]	100	75	76	97
CN1CCc2c(n(C#Cc3ccc(Cl)cc3)c3ccc(Cl)cc23)CC1 [Compound No. 282, 9-chloro-6-((4-chlorophenyl)ethynyl)-3-methyl-1,2,3,4,5,6-hexahydroazepino[4,5-b]indole]	98	67	87	71
Cc1ccc2c(c1)c1c(n2C(=O)Cc2ccc(F)cc2)CCN(C)CC1 [Compound No. 285, 1-(3,9-dimethyl-2,3,4,5-tetrahydroazepino[4,5-b]indol-6(1H)-yl)-2-(4-fluorophenyl) ethanone]	100	89	74	94
